Measurements from patent US11266645B2, “Methods for treating lymphoma” (Alexion Pharmaceuticals, Inc., priority 2018, dated 2022).
Where two headings read alike, the source gives them in different places.

Key:
Format in all cases: in vivo, human
[1] = Food and proton pump inhibitor crossover PK study in healthy subjects; settings: 30 mg oral; for Cmax / AUC(0-inf) / half-life / Tmax: human; for Cmax / AUC(0-inf): po, 30 mg; for AUC(0-inf): read-out: AUC0−inf Mean; for half-life: read-out: T1/2 Mean (converted); for Tmax: read-out: Tmax Median
Method: In an open-label, randomized, 3-period crossover study, healthy subjects received 30 mg cerdulatinib orally. The 3-period treatments were fasted, high-fat diet, and proton pump inhibitor (PPI) esomaprazole, with 14-day washout between treatments. Blood samples were collected up to 72 hours after cerdulatinib treatment. PK endpoints were area under the curve (AUC), maximum concentration (Cmax), Time to Cmax (Tmax), and half-live (T1/2).

[2] = system: CLL tumor cell surface CD5, CD69, CD86, CXCR4; test: CLL tumor cell surface marker expression by FACS; settings: C2D1 vs C1D1, two CLL patients
Method: For PD assessments, serial blood samples were drawn into lithium-heparin vacutainer tubes on Day 1 prior to dosing and again at 0.5, 1, 2, and 4 hours post-dose; on Day 8 at pre-dose and 2 hours post-dose; and Day 28 prior to dosing. Multiple assays were performed using the Day 1 and Day 8 PD samples. SYK-mediated BCR signaling in whole blood was measured prior to and post-dosing by stimulating 100 μL whole blood with 2 μL of anti-human IgD (IgG fraction) and 10 μg anti-human IgM for 10 minutes at 37° C., measuring the induction of pSYK Y525/526, pAKT S473, and pERK Y204. Similarly, whole blood was stimulated with 10 ng/mL of IL-2 (JAK1/3-dependent), IL-4 (JAK1/3-dependent), IL-6 (JAK1/TYK2-dependent) or GM-CSF (JAK2-dependent) for 20 minutes, measuring the induction of pSTAT5 Y694 in T-cells and NK cells, the induction of pSTAT6 Y641 in B cells, T-cells, NK cells, and monocytes, the induction of pSTAT3 Y705 in monocytes, B cells, and T-cells, and the induction of pSTAT5 Y694 in monocytes, respectively. The technical details for these assays were described in Coffey, G., et al., J Pharmacol Exp Ther, 2014. 351(3): p. 538-48. With blood samples from the CLL patients only, tumor cell surface expression of CD5, CD69, CD86, and CXCR4 pre-dose on days 1 and 28 were monitored. The recommended volume of antibodies were applied directly to 100 μL whole blood and incubated for 1 hour at room temperature. Afterwards, 4 mL of BD Lyse/Fix reagent was added to the blood to lyse red blood cells and fix the remaining leukocytes, followed by washing and FACS analysis. For each assay, data were collected using an LSR II instrument (BD Bioscience, San Jose, Calif.) and analyzed using Flowjo software (Flowjo LLC, Ashland, Oreg.). Data were normalized to the induction of each parameter prior to dosing on day 1 to generate percent inhibition post-dosing.

[3] = system: serum markers of inflammation; test: Serum protein markers of inflammation (multiplexed luminex)
Method: Whole blood for isolation of serum was collected prior to dosing on days 1, 8, and 28 to measure changes in protein markers of inflammation and immune function. Serum samples were snap-frozen on dry ice immediately following its separation and stored at −80° C. Samples were analyzed using a multiplexed luminex-based technology (Myriad RBM, Austin, Tex.), utilizing the companies ImmunoMap (40 analytes) and InflammationMap (45 analytes) platforms. Serum from healthy donors was used as control.
The data were analyzed using the statistical language R and the accessory packages ggplot2 (Wickham, H., Elegant Graphics for Data Analysis. 2016: Springer-Verlag) and drc (Ritz, C., et al., Dose-Response Analysis Using R. PLoS One, 2015. 10(12): p. e0146021). For cell signaling assays, percent inhibition was determined by normalizing the receptor-induced phosphorylation events mean fluorescent intensity (MFI) to that of pre-dose receptor-induced MFI. The resulting relative activities were analyzed by nonlinear regression to a 3-parameter log-logistic function with an upper and lower limit set at 100 and 0%. For the analysis of immune and inflammation markers in serum, the varying concentration units were converted to a common scale in pg/mL. Values below and in excess of the detection limit were replaced by half the detection limit and the upper limit, respectively. For missing values, the median value for each marker from the treatment group was imputed. Statistically significant differences between the healthy and patient serum marker at all cycles (Cycle 1 Day 1, Cycle 1 Day 8, and Cycle 2 Day 1) were detected by paired t test. Dimension reduction of expression of the biomarker table in healthy and patient serum was performed using linear discriminant analysis, as is implemented in R. For the biomarkers and tumor response, reduction in biomarker after treatment was normalized to that before treatment and correlated to the maximal tumor response (growth or reduction), representing the ratio of minimal tumor area following treatment and tumor area before treatment. The significance of the relation between maximum tumor response and change in a specific biomarker was evaluated using Spearman-Rank-correlation and p value.

In the case of `CCS(=O)(=O)N1CCN(c2ccc(Nc3ncc(C(N)=O)c(NC4CC4)n3)cc2)CC1` [cerdulatinib, 4-(cyclopropylamino)-2-((4-(4-(ethylsulfonyl)piperazin-1-yl)phenyl)amino)pyrimidine-5-carboxamide], the “AUC0−inf Ratio Fed/Fasted” value [1] is reported as 1.16, the “AUC0−inf Ratio PPI/Fasted” value [1] is reported as 1.06 and the “Cmax Ratio Fed/Fasted” value [1] is reported as 1.11. The “Cmax Ratio PPI/Fasted” value [1] was 1.02, the “T1/2 Mean” value ([1]; Fasted) was 14.5 h and the Cmax ([1]; blood, Fed (high-fat diet)) was 187 ng/mL. It also gave an AUC(0-inf) ([1]; blood, Fed (high-fat diet)) of 4060 ng·h/mL, a half-life ([1]; blood, Fed (high-fat diet)) of 816 min and a Tmax ([1]; blood, Fed (high-fat diet)) of 6 h. It also gave a Cmax ([1]; in vivo, Fasted) of 168 ng/mL, an AUC(0-inf) ([1]; in vivo, Fasted) of 3460 ng·h/mL and a Cmax ([1]; in vivo, PPI (esomaprazole)) of 170 ng/mL. It also gave an AUC(0-inf) ([1]; in vivo, PPI (esomaprazole)) of 3680 ng·h/mL, a half-life ([1]; in vivo, PPI (esomaprazole)) of 870 min and a Tmax ([1]; in vivo, PPI (esomaprazole)) of 4 h. For the same molecule, the CD5 expression [2] was “reduced”, the CXCR4 expression [2] was “enhanced” and the “expression of surface activation markers CD69 and CD86” value [2] was “decreased expression”. For the same molecule, the “serum MIP30, CRP, and VCAM1” value ([3]; CLL/SLL and FL patients) was “significantly reduced”, the “MPO and CD40 serum levels” value ([3]; CLL/SLL patients, reduced at baseline) was “normalized” and the “serum BDNF” value ([3]; FL patients, reduced at baseline) was “normalized”. The “inhibition of serum inflammation markers” value ([3]; aggressive lymphomas (DLBCL/MCL)) was “Limited inhibition” and the “serum HCC4, IL18, and MIG” value ([3]; elevated at baseline, both patient groups) was “unaffected”.
